From US8153631B2, “Triazole compounds and uses related thereto” (Amgen Inc., priority 2003, dated 2012) come the findings set out here.

SMILES strings stand for the structures. pIC50: −log10 of the molar value. Some results are limits rather than exact numbers.

The target of the assay is T1, human HSD1 (recombinant HSD1) (Homo sapiens, UniProt P28845).
T1 construct: made in house
T1 sequence (P28845 whole entry): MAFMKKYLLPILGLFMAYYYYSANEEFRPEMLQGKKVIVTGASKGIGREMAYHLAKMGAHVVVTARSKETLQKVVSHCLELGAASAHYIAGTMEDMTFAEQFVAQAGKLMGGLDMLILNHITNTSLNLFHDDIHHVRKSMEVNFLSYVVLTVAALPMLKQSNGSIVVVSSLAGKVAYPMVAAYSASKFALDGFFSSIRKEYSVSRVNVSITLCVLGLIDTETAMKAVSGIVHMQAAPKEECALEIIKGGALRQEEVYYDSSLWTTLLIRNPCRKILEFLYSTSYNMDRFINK
Nature of the assay: In vitro HSD1 activity inhibitory action, SPA of cortisone to cortisol conversion. The class given is biochemical. Particulars: recombinant human HSD1 0.1 μg/ml, 500 μM NADPH, 16 nM 3H cortisone, room temperature 90 min, read-out: hHSD1 IC50. The procedure: In Vitro HSD1 (Hydroxysteroid Dehydrogenase 1) Activity Inhibitory Action
The HSD1 inhibitory activity was examined by quantitative determination by an SPA (scintillation proximity assay) system of the suppressive action on the conversion from cortisone to cortisol using human HSD1 (hereinafter recombinant HSD1) expressed using a baculo-virus system as an enzyme source. For the reaction, a reagent was added to a 96 well plate (96 well Opti-plates™-96 (Packard)) to the following final concentration and a volume of 100 μl was reacted at room temperature for 90 min. The reaction solution used was 0.1 μg/ml recombinant HSD1, 500 μM NADPH, 16 nM ^3H cortisone (Amersham Biosciences, 1.78 Tbq/mol) dissolved in 0.1% BSA (Sigma)-containing PBS and the test drug was 2 μl of a compound solution (dissolved in DMSO). After 90 min, the reaction was stopped by adding PBS (40 μl, containing 0.1% BSA (Sigma)) containing 0.08 μg of anti-cortisol mouse monoclonal antibody (East Coast Biologics), 365 μg SPA PVT mouse antibody-binding beads (Amersham Biosciences) and 175 μM carbenoxolone (Sigma) to the reaction solution. After the completion of the reaction, the plate was incubated overnight at room temperature and the radioactivity was measured by Topcount (Packard). For control, the value (0% inhibition) of the well containing 2 μl of DMSO instead of the test drug was used, and for positive control, the value (100% inhibition) of the well containing carbenoxolone instead of the test drug at the final concentration of 50 μM was used. The inhibition (%) of the test drug was calculated by ((value of control−value of test drug)/(value of control−value of positive control))×100 (%). The IC50 value was analyzed using a computer-based curve fitting soft.
The pIC50 is −log10 of the IC50, conventionally taken in molar units. As for `COc1ccc(COc2ccc(-c3nnc(C4(c5ccccc5)CC4)n3C)c(Cl)c2)cc1` [Ex. 1-67], the pIC50 was greater than 8.00. Next, `Cn1c(C2CCN(Cc3c(Cl)cccc3Cl)CC2)nnc1C1(c2ccccc2)CC1` [Ex. 1-99]: 6.00 to 8.00. Next, `CN(C)C(=O)c1ccc(-c2nnc(C3(c4ccccc4)CC3)n2C)c(Cl)c1` [Ex. 1-77]: 6.00 to 8.00; `CONC(=O)Nc1ccc(-c2nnc(C3(c4ccc(F)cc4)CC3)n2C)c(Cl)c1` [Ex. 1-152]: greater than 8.00; `COC(=O)C1CCN(c2ccc(-c3nnc(C4(c5ccccc5)CC4)n3C)c(Cl)c2)CC1` [Ex. 1-58]: greater than 8.00.

For `Cn1c(-c2ccc(NS(C)(=O)=O)cc2Cl)nnc1C1(c2ccccc2)CC1` [Ex. 1-22], the pIC50 is greater than 8.00.

`Cn1c(-c2ccc(OCCO)cc2Cl)nnc1C1(c2ccccc2)CC1` [Ex. 1-119]: the pIC50 was greater than 8.00.

Consider `CNC(=O)CCn1c(C2CCN(c3c(Cl)cncc3Cl)CC2)nnc1C1(c2ccccc2)CC1` [Ex. 1-10], for which the pIC50 is 6.00 to 8.00.

Take `Cn1c(N2CCC(C(=O)O)CC2)nnc1C1(c2ccccc2)CC1` [Ex. 2-5]: the pIC50 was 6.00 to 8.00. Regarding `Cn1c(-c2cc(Cl)ccc2Cl)nnc1C1(c2ccc(F)cc2)CC1` [Ex. 1-122], the pIC50 is greater than 8.00. The same measure for `Cn1c(N2CCC(Oc3cccc(CO)c3)CC2)nnc1C1(c2ccccc2)CC1` [Ex. 2-54]: 6.00 to 8.00; for `Cn1c(-c2ccc(C(=O)O)cc2Cl)nnc1C1(c2ccc(F)cc2)CC1` [Ex. 1-126]: 6.00 to 8.00; for `Cn1c(N2CCC(CO)(c3ccccc3)CC2)nnc1C1(c2ccccc2)CC1` [Ex. 2-17]: 6.00 to 8.00. Next, `Cn1c(-c2ccc(N3CCC(NC(=O)OC(C)(C)C)CC3)cc2Cl)nnc1C1(c2ccccc2)CC1` [Ex. 1-63]: greater than 8.00; `CC(C)Cn1c(N2CCC(Oc3ncc(Cl)cc3Cl)CC2)nnc1C1(c2ccccc2)CC1` [Ex. 2-77]: 6.00 to 8.00; `Cn1c(N2CC[S+]([O-])CC2)nnc1C1(c2ccccc2)CC1` [Ex. 2-23]: 6.00 to 8.00. Take `Cn1c(-c2ccc([N+](=O)[O-])cc2Cl)nnc1C1(c2ccccc2)CC1` [Ex. 1-20]: the pIC50 is greater than 8.00. Consider `Cn1c(-c2ccc(OCC(F)(F)F)cc2Cl)nnc1C1(c2ccccc2)CC1` [Ex. 1-129], for which the pIC50 is greater than 8.00. On to `Cn1c(C2CCCCC2)nnc1C1(c2ccccc2)CC1` [Ex. 1-103], for which the pIC50 is greater than 8.00. For the compound `Cn1c(-c2ccc(NC(=O)CN3CCOCC3)cc2Cl)nnc1C1(c2ccccc2)CC1` [Ex. 1-31], the negative-log IC50 (pIC50) is greater than 8.00. For `COCCn1c(N2CCC(Oc3ncc(Cl)cc3Cl)CC2)nnc1C1(c2ccccc2)CC1` [Ex. 2-72], the pIC50 was 6.00 to 8.00. With `COC(=O)c1ccccc1OC1CCN(c2nnc(C3(c4ccccc4)CC3)n2C)CC1` [Ex. 2-50], the pIC50 is 6.00 to 8.00. Regarding `Cn1c(N2CCN(c3ccc(Cl)cc3)CC2)nnc1C1(c2ccccc2)CC1` [Ex. 2-90], the pIC50 was 6.00 to 8.00. Turning to `CN(O)C(=O)Nc1ccc(-c2nnc(C3(c4ccccc4)CC3)n2C)c(Cl)c1` [Ex. 1-137], the pIC50 is greater than 8.00. On to `COc1ccc(-c2nnc(C3(c4ccccc4)CC3)n2C)c(Cl)c1` [Ex. 1-76], for which the pIC50 is greater than 8.00. As for `COC(=O)Nc1ccc(Cl)c(-c2nnc(C3(c4ccc(F)cc4)CC3)n2C)c1` [Ex. 1-150], the pIC50 is greater than 8.00.

As to `Cn1c(N2CCN(c3ccccc3Cl)CC2)nnc1C1(c2ccccc2)CC1` [Ex. 2-85], the pIC50 was greater than 8.00. For `CN(C)CC(=O)Nc1ccc(-c2nnc(C3(c4ccccc4)CC3)n2C)c(Cl)c1` [Ex. 1-25], the pIC50 is greater than 8.00. On to `Cn1c(-c2ccc(NCCO)cc2Cl)nnc1C1(c2ccc(F)cc2)CC1` [Ex. 1-120], for which the pIC50 is greater than 8.00.

Consider `Cn1c(-c2ccc(F)cc2Cl)nnc1C1(c2ccccc2)CC1` [Ex. 1-92], for which the pIC50 was greater than 8.00.

As to `CC(=O)N1CCC(c2nnc(C3(c4ccccc4)CC3)n2C)CC1` [Ex. 1-4], the pIC50 is 6.00 to 8.00.

As for `Cn1c(N2CCC(Cc3ccccc3)CC2)nnc1C1(c2ccccc2)CC1` [Ex. 2-34], the pIC50 is 6.00 to 8.00. `CCn1c(-c2ccc(C(N)=O)cc2Cl)nnc1C1(c2ccccc2)CC1` [Ex. 1-158]: the pIC50 is greater than 8.00. On to `NCCn1c(C2CCN(c3c(Cl)cncc3Cl)CC2)nnc1C1(c2ccccc2)CC1` [Ex. 1-6], for which the pIC50 was 6.00 to 8.00.

For the compound `Cn1c(-c2ccc(Br)cc2Cl)nnc1C1(c2ccccc2)CC1` [Ex. 1-100], the pIC50 is greater than 8.00. Consider `Cn1c(C2(c3ccccc3)CC2)nnc1[C@H]1CC[C@H](C(N)=O)CC1` [Ex. 1-112], for which the pIC50 is greater than 8.00. For the compound `Cn1c(-c2ccc(C(N)=O)cc2Cl)nnc1C1(c2ccccc2)CC1` [Ex. 1-73], the pIC50 was greater than 8.00.

On to `CC1CCN(c2nnc(C3(c4ccccc4)CC3)n2C)CC1` [Ex. 2-53], for which the negative-log IC50 (pIC50) is greater than 8.00. Next, `Cn1c(N2CCC(Oc3ccccc3C(=O)O)CC2)nnc1C1(c2ccccc2)CC1` [Ex. 2-46]: 6.00 to 8.00; `COC(=O)c1ccc(-c2nnc(C3(c4ccccc4)CC3)n2C)c(Cl)c1` [Ex. 1-70]: greater than 8.00; `COCCNC(=O)C1CCN(c2ccc(-c3nnc(C4(c5ccccc5)CC4)n3C)c(Cl)c2)CC1` [Ex. 1-110]: greater than 8.00. For the compound `Cn1c(-c2ccccn2)nnc1C1(c2ccccc2)CC1` [Ex. 1-98], the pIC50 was 6.00 to 8.00. On to `Cn1c(N2CCC(C)(C)CC2)nnc1C1(c2ccc(F)cc2)CC1` [Ex. 2-60], for which the pIC50 is greater than 8.00. With `Cn1c(N2CCC(Oc3ncc(C(F)(F)F)cc3Cl)CC2)nnc1C1(c2ccccc2)CC1` [Ex. 2-37], the pIC50 was 6.00 to 8.00. Next, `CC(=O)N1CCN(c2ccc(-c3nnc(C4(c5ccccc5)CC4)n3C)c(Cl)c2)CC1` [Ex. 1-49]: greater than 8.00. With `CC(C)C1CCN(c2nnc(C3(c4ccccc4)CC3)n2C)CC1` [Ex. 2-65], the pIC50 was greater than 8.00.

Regarding `CC(C)NC(=O)c1ccc(-c2nnc(C3(c4ccccc4)CC3)n2C)c(Cl)c1` [Ex. 1-79], the negative logarithm of the IC50 (pIC50) is 6.00 to 8.00. Turning to `CN(C)C(=O)C1CCN(c2ccc(-c3nnc(C4(c5ccccc5)CC4)n3C)c(Cl)c2)CC1` [Ex. 1-115], the pIC50 is greater than 8.00. Regarding `COc1ccc(C2(c3nnc(N4CCC(Oc5ncc(Cl)cc5Cl)CC4)n3C)CC2)cc1` [Ex. 2-83], the pIC50 was 6.00 to 8.00. Next, `Cn1c(-c2ccc(NC(=O)CN3CCCC(O)C3)cc2Cl)nnc1C1(c2ccccc2)CC1` (stereo not shown) [Ex. 1-44]: 6.00 to 8.00; `CONC(=O)Nc1ccc(-c2nnc(C3(c4ccccc4)CC3)n2C)c(Cl)c1` [Ex. 1-117]: greater than 8.00; `CNC(=O)c1cccc(OC2CCN(c3nnc(C4(c5ccccc5)CC4)n3C)CC2)c1` [Ex. 2-56]: 6.00 to 8.00.

Take `Cn1c(N2CCC(c3ccccc3)CC2)nnc1C1(c2ccccc2)CC1` [Ex. 2-1, 1-[4-methyl-5-(1-phenylcyclopropyl)-4H-[1,2,4]triazol-3-yl]-4-phenylpiperidine]: the pIC50 was greater than 8.00. With `Cn1c(-c2ccc(N3CCC(CO)CC3)cc2Cl)nnc1C1(c2ccccc2)CC1` [Ex. 1-108], the pIC50 was greater than 8.00. The same measure for `Cn1c(N2CCN(Cc3ccc(Cl)cc3Cl)CC2)nnc1C1(c2ccccc2)CC1` [Ex. 2-84]: 6.00 to 8.00; for `Cn1c(-c2ccc(N3CCCC(O)C3)cc2Cl)nnc1C1(c2ccccc2)CC1` (stereo not shown) [Ex. 1-66]: greater than 8.00; for `Cn1c(N2CCC(O)CC2)nnc1C1(c2ccccc2)CC1` [Ex. 2-32]: greater than 8.00. Take `Cn1c(N2CCSCC2)nnc1C1(c2ccccc2)CC1` [Ex. 2-21]: the pIC50 was greater than 8.00. Turning to `CC(C)n1c(-c2ccc(N3CCOC3=O)cc2)nnc1C1(c2ccc(F)cc2)CC1` [Ex. 1-149], the pIC50 was greater than 8.00. As to `Cn1c(N2CCCc3ccccc32)nnc1C1(c2ccccc2)CC1` [Ex. 2-25], the pIC50 is greater than 8.00.

For `Cn1c(-c2ccc(Cl)cc2Cl)nnc1C1(c2ccc(F)cc2)CC1` [Ex. 1-107], the pIC50 was greater than 8.00. For the compound `COc1cc(C(N)=O)ccc1-c1nnc(C2(c3ccccc3)CC2)n1C` [Ex. 1-125], the pIC50 was greater than 8.00. Turning to `Cn1c(N2CCC(Oc3ncc(Cl)cc3Cl)CC2)nnc1C1(c2ccc(F)cc2)CC1` [Ex. 2-31], the pIC50 is greater than 8.00. Turning to `CN(C)C(=O)C1CCN(c2nnc(C3(c4ccccc4)CC3)n2C)CC1` [Ex. 2-19], the pIC50 was 6.00 to 8.00.

On to `CC1CCN(c2ccc(-c3nnc(C4(c5ccccc5)CC4)n3C)c(Cl)c2)CC1` [Ex. 1-56], for which the pIC50 was greater than 8.00. Next, `Cn1c(N2CCC(Oc3ncc(Cl)cc3Cl)CC2)nnc1C1(c2ccccc2)CCCC1` [Ex. 2-81]: greater than 8.00; `CC(=O)Nc1ccc(-c2nnc(C3(c4ccc(F)cc4)CC3)n2C)c(Cl)c1` [Ex. 1-47]: greater than 8.00; `Cn1c(-c2ccc(N3CCC(C(N)=O)CC3)cc2Cl)nnc1C1(c2ccccc2)CC1` [Ex. 1-109]: greater than 8.00. The same measure for `COc1cc(Cl)ccc1-c1nnc(C2(c3ccccc3)CC2)n1C` [Ex. 1-91]: greater than 8.00; for `CN(c1ccc(Cl)cc1)c1nnc(C2(c3ccccc3)CC2)n1C` [Ex. 2-94]: greater than 8.00.
